Data from US8304394B2, “Low side effect pharmaceutical composition containing isoniazid” (priority 2008, dated 2012).
Where two headings read alike, the source gives them in different places.

Experiments:
[1] = biological target: T1, human liver microsomal cytochrome P450 2E1 (CYP2E1) (Homo sapiens, UniProt P05181); test: Chlorzoxazone hydroxylation inhibition (6-OH-CZX by LC/MS/MS)
[2] = biological target: T2, cDNA expressed human cytochrome P450 2E1 (CYP2E1) (Homo sapiens, UniProt P05181)
CYP2E1 [3] = biological target: T3, CYP2E1 (Homo sapiens, UniProt P05181); test: in vitro; settings: for inhibition at 40 min, 16.5 µM: tested concentration 16.5 μM; for inhibition at 40 min, 66 µM: tested concentration 66 μM; for inhibition at 40 min, 33 µM: pH 7.4
[4] = biological target: T2, cDNA expressed human cytochrome P450 2E1 (CYP2E1); settings: 40 min, pH 7.4
[5] = biological target: T1, human liver microsomal cytochrome P450 2E1 (CYP2E1); settings: human, 30 min, pH 7.4
CYP2E1 [6] = biological target: T3, CYP2E1; test: Chlorzoxazone hydroxylation inhibition (6-OH-CZX by LC/MS/MS); settings: human, microsomes, pH 7.4
[7] = pH 7.4, Inhibition of CYP 2E1 (%)

T1 sequence (P05181 whole entry): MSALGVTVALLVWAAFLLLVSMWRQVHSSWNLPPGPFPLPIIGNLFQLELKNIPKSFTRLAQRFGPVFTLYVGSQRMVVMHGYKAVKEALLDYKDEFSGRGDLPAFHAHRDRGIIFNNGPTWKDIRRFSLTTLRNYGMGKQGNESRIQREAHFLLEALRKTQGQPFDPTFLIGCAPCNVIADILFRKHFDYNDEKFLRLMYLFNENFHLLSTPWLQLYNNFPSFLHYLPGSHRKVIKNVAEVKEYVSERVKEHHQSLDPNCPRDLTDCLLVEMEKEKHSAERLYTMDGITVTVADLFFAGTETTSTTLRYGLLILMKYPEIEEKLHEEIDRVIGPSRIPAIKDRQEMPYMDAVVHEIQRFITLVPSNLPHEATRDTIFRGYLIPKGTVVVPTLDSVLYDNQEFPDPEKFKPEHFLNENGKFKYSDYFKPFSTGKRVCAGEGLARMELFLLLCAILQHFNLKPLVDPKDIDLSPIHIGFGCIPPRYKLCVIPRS
T2 sequence (P05181 whole entry): as above
T3 sequence (P05181 whole entry): as above

SMILES: C=C(C)C1CC=C(C)CC1 (single isomer, unassigned; (+)) [(+)-Limonene]
- Inhibition of CYP 2E1 (%) ([1]; tested concentration 16.5 μM): 13.77 ± 1.96%
- Inhibition of CYP 2E1 (%) ([1]; tested concentration 33 μM): 38.05 ± 1.95%
- Inhibition of CYP 2E1 (%) ([1]; tested concentration 66 μM): 63.64 ± 2.74%

SMILES: CCCCC[C@H](O)CC(=O)CCc1ccc(O)c(OC)c1 [6-Gingerol]
- Inhibition of CYP 2E1 (%) ([2]; tested concentration 33 μM): 39.83 ± 2.32%

SMILES: Oc1cc(O)c2c(c1)O[C@H](c1ccc(O)c(O)c1)[C@@H](O)C2 [(+)-Catechin]
- Inhibition of CYP 2E1 (%) ([2]; tested concentration 16.5 μM): 41.53 ± 7.62%
- Inhibition of CYP 2E1 (%) ([2]; tested concentration 33 μM): 33.83 ± 8.76%
- Inhibition of CYP 2E1 (%) ([2]; tested concentration 66 μM): 16.45 ± 9.67%

SMILES: Oc1cc(O)c2c(c1)O[C@@H](c1ccc(O)c(O)c1)[C@@H](O)C2 [(+)-Epicatechin]
- Inhibition of CYP 2E1 (%) ([1]; tested concentration 16.5 μM): 66.71 ± 1.79%
- Inhibition of CYP 2E1 (%) ([1]; tested concentration 33 μM): 52.32 ± 1.59%

SMILES: O=C1c2c(O)cc(O)cc2O[C@H](c2ccc(O)c(O)c2)[C@H]1O [(+)-Taxifolin]
- inhibition at 40 min, 16.5 µM (CYP2E1 [3]; [7]): 22.6 ± 11.7%
- inhibition at 40 min, 66 µM (CYP2E1 [3]; [7]): 34.5 ± 3.47%

SMILES: Oc1cc(O)c2c(c1)O[C@H](c1ccc(O)c(O)c1)[C@H](O)C2 [(−)-Epicatechin]
- Inhibition of CYP 2E1 (%) ([2]; tested concentration 16.5 μM): 18.27 ± 9.34%
- Inhibition of CYP 2E1 (%) ([2]; tested concentration 33 μM): 15.02 ± 5.50%
- Inhibition of CYP 2E1 (%) ([2]; tested concentration 66 μM): 2.57 ± 11.60%

SMILES: Oc1cc(O)c2c(c1)O[C@H](c1cc(O)c(O)c(O)c1)[C@H](O)C2 [(−)-Epigallocatechin]
- Inhibition of CYP 2E1 (%) ([1]; tested concentration 16.5 μM): 38.95 ± 1.92%
- Inhibition of CYP 2E1 (%) ([1]; tested concentration 33 μM): 36.40 ± 2.18%
- Inhibition of CYP 2E1 (%) ([1]; tested concentration 66 μM): 57.08 ± 1.85%

SMILES: O=C(O[C@@H]1Cc2c(O)cc(O)cc2O[C@@H]1c1cc(O)c(O)c(O)c1)c1cc(O)c(O)c(O)c1 [(−)-Epigallocetechin-3-gallate]
- Inhibition of CYP 2E1 (%) ([1]; tested concentration 16.5 μM): 50.19 ± 1.89%
- Inhibition of CYP 2E1 (%) ([1]; tested concentration 33 μM): 60.53 ± 2.06%
- Inhibition of CYP 2E1 (%) ([1]; tested concentration 66 μM): 72.16 ± 1.02%

SMILES: COc1c(O)cc2oc(Oc3ccc(O)cc3)cc(=O)c2c1O [Capillarisin]
- Inhibition of CYP 2E1 (%) ([1]; tested concentration 16.5 μM): 32.89 ± 2.46%
- Inhibition of CYP 2E1 (%) ([1]; tested concentration 33 μM): 46.22 ± 2.65%
- Inhibition of CYP 2E1 (%) ([1]; tested concentration 66 μM): 57.31 ± 1.31%
- Inhibition of CYP 2E1 (%) ([2]; tested concentration 16.5 μM): 49.05 ± 5.18%
- Inhibition of CYP 2E1 (%) ([2]; tested concentration 33 μM): 60.54 ± 5.91%
- Inhibition of CYP 2E1 (%) ([2]; tested concentration 66 μM): 76.12 ± 1.89%

SMILES: CCN(CC)C(=S)S [DDTC, Diethyldithiocarbamic acid]
- HFC synthesis ([4]; 0.03 μM): 256.00 pmol
- HFC synthesis ([4]; 0.091 μM): 202.00 pmol
- HFC synthesis ([4]; 2.47 μM): 55.18 pmol
- HFC synthesis ([4]; 7.4 μM): 21.08 pmol
- HFC synthesis ([4]; 22.2 μM): 15.10 pmol
- 6-OH-CZX concentration ([5]; 50 μM): 1644.5 pmol
- 6-OH-CZX concentration ([5]; 100 μM): 431.2 pmol
- inhibition at 40 min, 0.091 μM (CYP2E1 [3]; pH 7.4, Inhibition of CYP 2E1 (%), DDTC 0.091 μM): 8.71%
- inhibition at 40 min, 2.47 μM (CYP2E1 [3]; pH 7.4, Inhibition of CYP 2E1 (%), DDTC 2.47 μM): 75.1%
- inhibition at 40 min, 7.4 μM (CYP2E1 [3]; pH 7.4, Inhibition of CYP 2E1 (%), DDTC 7.4 μM): 90.5%
- inhibition at 40 min, 22.2 μM (CYP2E1 [3]; pH 7.4, Inhibition of CYP 2E1 (%), DDTC 22.2 μM): 93.2%
- inhibition at 30 min, 50 μM (CYP2E1 [6]): 48.7%
- inhibition at 30 min, 100 μM (CYP2E1 [6]): 87.6%

SMILES: CCCCCCCCCCCC1=C(O)C(=O)C=C(O)C1=O [Embelin]
- inhibition at 40 min, 33 µM (CYP2E1 [3]): 12.3 ± 10.2%
- inhibition at 40 min, 16.5 µM (CYP2E1 [3]; [7]): 5.95 ± 7.48%
- inhibition at 40 min, 66 µM (CYP2E1 [3]; [7]): 13.5 ± 11.6%

SMILES: COc1ccc([C@@H]2CC(=O)c3c(O)cc(O)cc3O2)cc1O [Hesperetin]
- inhibition at 40 min, 33 µM (CYP2E1 [3]): 43.3 ± 0.82%
- inhibition at 40 min, 16.5 µM (CYP2E1 [3]; [7]): 32.1 ± 5.8%
- inhibition at 40 min, 66 µM (CYP2E1 [3]; [7]): 54.8 ± 1.37%
- inhibition at 30 min, 16.5 µM (CYP2E1 [6]): 25.7 ± 2.45%
- inhibition at 30 min, 33 µM (CYP2E1 [6]): 34.3 ± 2.03%
- inhibition at 30 min, 66 µM (CYP2E1 [6]): 44.6 ± 2.35%

SMILES: COc1ccc([C@@H]2CC(=O)c3c(O)cc(O[C@@H]4O[C@H](CO[C@@H]5O[C@@H](C)[C@H](O)[C@@H](O)[C@H]5O)[C@@H](O)[C@H](O)[C@H]4O)cc3O2)cc1O [Hesperidin]
- Inhibition of CYP 2E1 (%) ([1]; tested concentration 16.5 μM): 45.32 ± 1.57%
- Inhibition of CYP 2E1 (%) ([1]; tested concentration 33 μM): 50.91 ± 2.81%
- Inhibition of CYP 2E1 (%) ([1]; tested concentration 66 μM): 58.57 ± 3.78%

SMILES: O=c1c(O)c(-c2ccc(O)cc2)oc2cc(O)cc(O)c12 [Kaempferol]
- inhibition at 40 min, 33 µM (CYP2E1 [3]): 70 ± 3.75%
- inhibition at 40 min, 16.5 µM (CYP2E1 [3]; [7]): 71.9 ± 1.14%
- inhibition at 40 min, 66 µM (CYP2E1 [3]; [7]): 70.6 ± 2.53%
- inhibition at 30 min, 16.5 µM (CYP2E1 [6]): 66.5 ± 1.71%
- inhibition at 30 min, 33 µM (CYP2E1 [6]): 74.74 ± 0.6%
- inhibition at 30 min, 66 µM (CYP2E1 [6]): 79.25 ± 0.27%

SMILES: O=c1cc(-c2ccc(O)c(O)c2)oc2cc(O[C@@H]3O[C@H](CO)[C@@H](O)[C@H](O)[C@H]3O)cc(O)c12 [Luteolin-7-Glucoside]
- Inhibition of CYP 2E1 (%) ([1]; tested concentration 16.5 μM): 42.96 ± 5.10%
- Inhibition of CYP 2E1 (%) ([1]; tested concentration 33 μM): 55.87 ± 0.67%
- Inhibition of CYP 2E1 (%) ([1]; tested concentration 66 μM): 60.26 ± 1.11%
